For twelve compounds, IC50 results are on record in patent US20240376099A1, “COMPOUNDS AND COMPOSITIONS AS INHIBITORS OF ENDOSOMAL TOLL-LIKE RECEPTORS” (Novartis AG, priority 2016, published 2024).

What is called IC50 is the point on the concentration scale where inhibition reaches its midpoint.

This experiment addresses T1, TLR8 (Homo sapiens, UniProt Q9NR97).
T1 sequence (Q9NR97 27-1041): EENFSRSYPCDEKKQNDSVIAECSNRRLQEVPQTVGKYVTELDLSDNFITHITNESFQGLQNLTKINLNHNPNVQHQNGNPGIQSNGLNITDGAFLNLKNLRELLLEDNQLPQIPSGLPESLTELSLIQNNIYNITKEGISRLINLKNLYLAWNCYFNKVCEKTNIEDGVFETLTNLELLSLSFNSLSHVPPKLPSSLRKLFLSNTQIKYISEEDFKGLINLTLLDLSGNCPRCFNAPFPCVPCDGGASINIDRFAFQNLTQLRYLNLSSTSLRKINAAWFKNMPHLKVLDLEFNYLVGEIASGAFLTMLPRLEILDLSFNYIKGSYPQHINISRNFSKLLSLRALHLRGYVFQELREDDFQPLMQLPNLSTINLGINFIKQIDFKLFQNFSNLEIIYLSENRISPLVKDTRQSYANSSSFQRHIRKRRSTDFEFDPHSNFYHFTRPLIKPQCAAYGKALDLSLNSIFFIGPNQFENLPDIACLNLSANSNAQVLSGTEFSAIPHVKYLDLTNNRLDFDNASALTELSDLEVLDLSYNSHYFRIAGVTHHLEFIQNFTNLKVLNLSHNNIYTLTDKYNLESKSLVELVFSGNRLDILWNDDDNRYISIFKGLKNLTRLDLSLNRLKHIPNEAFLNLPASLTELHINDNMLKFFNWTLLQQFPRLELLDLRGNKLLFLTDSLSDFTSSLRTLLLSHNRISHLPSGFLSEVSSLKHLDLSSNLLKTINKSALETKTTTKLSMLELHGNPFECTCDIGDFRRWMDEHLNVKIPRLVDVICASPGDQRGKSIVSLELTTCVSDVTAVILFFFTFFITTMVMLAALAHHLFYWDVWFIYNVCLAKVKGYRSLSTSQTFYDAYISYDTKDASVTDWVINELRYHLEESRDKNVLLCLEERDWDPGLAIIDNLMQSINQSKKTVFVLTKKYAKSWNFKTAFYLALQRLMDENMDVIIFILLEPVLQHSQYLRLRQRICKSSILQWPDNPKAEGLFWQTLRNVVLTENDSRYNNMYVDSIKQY
The experiment is described as follows: huPBMC TLR8 Antagonist IL-6 TR-FRET Assay. It counts as cell-based. Also on record: Fresh blood was collected from normal human donors; endogenous in cells; host or cells: human PBMCs from fresh donor blood. The note with it: human PBMCs stimulated with ssRNA40 1 μg/ml (DOTAP), 14-16 hrs; IL-6 TR-FRET read-out. On the procedure:
Compounds were generally serially diluted (1/3) in DMSO and plated on sterile 384 well tissue culture plates and stored until ready for use. Each ten-point dilution was typically plated in triplicate in parallel rows.
Fresh blood was collected from normal human donors underwritten informed consent in heparinized syringes on the morning of the assay. The blood was diluted in RPMI-1640 medium and the white blood cells were separated from red blood cells by centrifugation (800 g 15′ 0 acceleration, 0 brake) on a Ficoll cushion. Peripheral blood mononuclear cells (PBMCs) were separated from platelets by a series of low-speed centrifugations (1000RPM 10′) in PBS+5% HI—FBS and 1 mM EDTA. Purified PBMCs were re-suspended in assay medium (RPMI-1640 w Glutamax (Invitrogen) supplemented with 5% HI—FBS, 10 mM HEPES, 50 uM β-mercaptoethanol, and 100 mG/L penicillin/streptomycin cocktail). Viable PBMCs were counted on a hemacytometer and kept on ice until ready for plating.
A 4× concentration (4 ug/ml or 40 ug/ml for TLR8 or TLR7 assays, respectively) of the TLR7/8 agonist ssRNA40 (IDT) was complexed with 10% DOTAP (Roche) in assay medium for 30 min prior to addition to the PBMC suspension (5 million cells/ml). After addition, the final concentration of ssRNA40 in the TLR7/8 stimulated PBMC suspension was 1 μg/ml for TLR8 assay, and 10 μg/mL for the TLR7 assay. The final DOTAP concentration was 2.5%. Diluted PBMCs (5 million cells/ml) were treated with 4×TLR9 agonist ODN2216 (Invivogen). Final concentration of ODN2216 in TLR9 stimulated PBMC suspension was 0.3 μM.
Agonist stimulated PBMCs were plated on the compound treated 384 well plates at 150,000 cells/well. Un-stimulated PBMCs were plated as controls on each plate. Plating volume was 40 μL per well. DMSO concentration in each well was 0.25%.
A separate plate, without compounds, with titrations of ssRNA40 and ODN2216 was included in every assay to measure agonist response of each donor's PBMC prep. Assay plates were placed in a tissue culture incubator (37° C., 5% CO2) for 14-16 hrs. After this incubation, the plates were centrifuged and stored at −20° C. until they were assayed.
IL-6 TR-FRET Assay for TLR8 activity: • 1) Cisbio Human IL-6 kit, 20,000 tests (62TNFPEC), and GNF High-Base TC 384 well plates (cat #789163G) were used; • 2) the Anti-TIL-6 Cryptate conjugate and the Anti-IL-6 XL665 conjugate were diluted 1:20 in Reconstitution Buffer; • 3) a 1:1 mixture of 3 μl/well Anti-IL-6 Cryptate conjugate and 3 μl/well Anti-IL-6 XL665 conjugate was prepared; • 4) 6 μl/well HTRF dilution mastermix was added to 6 μl of transferred supernatant samples in proxiplates; • 5) The plates were incubated for 3 hrs at rt in the dark; and • 6) the levels of IL-6 production was measured using an Envision plate reader (665 nm (emmission)/590 nm (excitation)) with HTRF settings and ratiometric read-out: (XL665 emission/Eu Cryptate emission)×10,000. IFNα2b AlphaLISA Assay for TLR7 or TLR9 activity After thawing the assay plates, 6 μL of supernatant samples were transferred to a low-volume AlphaPlate 384SW (Perkin-Elmer). The concentration of IFNα in supernatants was measured using the IFNα2b AlphaLISA Assay (Perkin-Elmer: AL297F). 3 μL of IFNα acceptor beads/biotinylated antibody solution was added first, using laboratory automation. After an hour incubation, […] of streptavidin […] bead solution was added. The plates containing this mixture were incubated in the dark for an hour and read on an appropriate plate reader at reading parameters set by the manufacturer. (Envision, EnSpire: Perkin-Elmer).
Take `Cc1nc(N2CCc3c(c(C)nn3CC34CCC(N)(CC3)CC4)C2)c2cnn(C)c2n1` [compound 149, 4-((5-(1,6-dimethyl-1H-pyrazolo[3,4-d]pyrimidin-4-yl)-3-methyl-4,5,6,7-tetrahydro-1H-pyrazolo[4,3-c]pyridin-1-yl)methyl)bicyclo[2.2.2]octan-1-amine]: the half-inhibitory concentration (IC50) was found to be 695 nM. As for `Cc1nn(CC23CCC(N)(CC2)CC3)c2c1CN(c1nc(-c3ccc(F)cc3)nc3c1cnn3C)CC2` [Compound No. 83, 4-((5-(6-(4-fluorophenyl)-1-methyl-1H-pyrazolo[3,4-d]pyrimidin-4-yl)-3-methyl-4,5,6,7-tetrahydro-1H-pyrazolo[4,3-c]pyridin-1-yl)methyl)bicyclo[2.2.2]octan-1-amine], the figure is 865 nM. As for `Cc1cc(N2CCc3c(c(C)nn3CC34CCC(NC(=O)C5COCCN5C)(CC3)CC4)C2)c2cnn(C)c2n1` (stereo not drawn) [compound 122, N-(4-((5-(1,6-dimethyl-1H-pyrazolo[3,4-b]pyridin-4-yl)-3-methyl-4,5,6,7-tetrahydro-1H-pyrazolo[4,3-c]pyridin-1-yl)methyl)bicyclo[2.2.2]octan-1-yl)-4-methylmorpholine-3-carboxamide], the IC50 was 922 nM. In the case of `Cc1nn(CC23CCC(N)(CC2)CC3)c2c1CN(c1nc(Cl)nc3c1COC3)CC2` [compound 103, 4-((5-(2-chloro-5,7-dihydrofuro[3,4-d]pyrimidin-4-yl)-3-methyl-4,5,6,7-tetrahydro-1H-pyrazolo[4,3-c]pyridin-1-yl)methyl)bicyclo[2.2.2]octan-1-amine], the IC50 came out at 1420 nM.

For `Cc1cc(N2CCc3c(c(C)nn3CC34CCC(N)(CC3)CO4)C2)c2cnn(C)c2n1` [compound 81, 1-((5-(1,6-dimethyl-1H-pyrazolo[3,4-b]pyridin-4-yl)-3-methyl-4,5,6,7-tetrahydro-1H-pyrazolo[4,3-c]pyridin-1-yl)methyl)-2-oxabicyclo[2.2.2]octan-4-amine], the IC50 was 395 nM. As for `Cc1cc(N2CCc3c(c(C)nn3CC34CCC(NC(=O)CN(C)C)(CC3)CC4)C2)c2cnn(C)c2n1` [Compound No. 7, N-(4-((5-(1,6-dimethyl-1H-pyrazolo[3,4-b]pyridin-4-yl)-3-methyl-4,5,6,7-tetrahydro-1H-pyrazolo[4,3-c]pyridin-1-yl)methyl)bicyclo[2.2.2]octan-1-yl)-2-(dimethylamino)acetamide], the figure is 61 nM; as for `COCC(C)NC12CCC(Cn3nc(C)c4c3CCN(c3cc(C)nc5c3cnn5C)C4)(CC1)CC2` (stereo not drawn) [compound 96, 4-((5-(1,6-dimethyl-1H-pyrazolo[3,4-b]pyridin-4-yl)-3-methyl-4,5,6,7-tetrahydro-1H-pyrazolo[4,3-c]pyridin-1-yl)methyl)-N-(1-methoxypropan-2-yl)bicyclo[2.2.2]octan-1-amine], 775 nM.

As to `Cc1cc(N2CCc3c(c(C)nn3CC34CCC(N)(CC3)CC4)C2)c2ccccc2n1` [compound 62, -((3-methyl-5-(2-methylquinolin-4-yl)-4,5,6,7-tetrahydro-1H-pyrazolo[4,3-c]pyridin-1-yl)methyl)bicyclo[2.2.2]octan-1-amine], the 50% inhibitory concentration (IC50) was found to be 699 nM. Then `Cc1cc(N2CCc3c(c(C)nn3CC34CCC(N(C)C)(CC3)CO4)C2)c2cnn(C)c2n1` [compound 98, 1-((5-(1,6-dimethyl-1H-pyrazolo[3,4-b]pyridin-4-yl)-3-methyl-4,5,6,7-tetrahydro-1H-pyrazolo[4,3-c]pyridin-1-yl)methyl)-N,N-dimethyl-2-oxabicyclo[2.2.2]octan-4-amine], with 718 nM; and `Cc1ccc(-c2cc(N3CCc4c(c(C)nn4CC45CCC(N)(CC4)CC5)C3)ccn2)c(F)c1` [compound 88, 4-((5-(2-(2-fluoro-4-methylphenyl)pyridin-4-yl)-3-methyl-4,5,6,7-tetrahydro-1H-pyrazolo[4,3-c]pyridin-1-yl)methyl)bicyclo[2.2.2]octan-1-amine], with 715 nM; and `Cc1cc(N2Cc3cn(CC45CCC(N)(CC4)CC5)nc3C(C)(C)C2)c2cnn(C)c2n1` [compound 65, 4-((5-(1,6-dimethyl-1H-pyrazolo[3,4-b]pyridin-4-yl)-7,7-dimethyl-4,5,6,7-tetrahydro-2H-pyrazolo[4,3-c]pyridin-2-yl)methyl)bicyclo[2.2.2]octan-1-amine], with 2360 nM.

`CCN(C)C12CCC(Cn3nc(C)c4c3CCN(c3cc(C)nc5c3cnn5C)C4)(CC1)CC2` [compound 97, 4-((5-(1,6-dimethyl-1H-pyrazolo[3,4-b]pyridin-4-yl)-3-methyl-4,5,6,7-tetrahydro-1H-pyrazolo[4,3-c]pyridin-1-yl)methyl)-N-ethyl-N-methylbicyclo[2.2.2]octan-1-amine]: the IC50 came out at 89 nM.
